Legend:
Conditions in all cases: compound 10.0 µM
ADRBK1 (human) = ADRBK1 (human) (UniProt P25098)
AURKC (human) = AURKC (human) (UniProt Q9UQB9)
BRSK1 (human) = BRSK1 (human) (UniProt Q8TDC3)
BTK (human) = BTK (human) (UniProt Q06187)
CAMK1 (human) = CAMK1 (human) (UniProt Q14012)
CAMKK2 (human) = CAMKK2 (human) (UniProt Q96RR4)
CDK1 CCNB1 (human) = CDK1 CCNB1 (human) (UniProt P06493+P14635)
CDK7 CCNH MNAT1 (human) = CDK7 CCNH MNAT1 (human) (UniProt P50613+P51948+P51946)
CHEK1 (human) = CHEK1 (human) (UniProt O14757)
CLK4 (human) = CLK4 (human) (UniProt Q9HAZ1)
CSNK1D (human) = CSNK1D (human) (UniProt P48730)
Sequence of CSNK1D (human) (P48730 whole entry, looked up): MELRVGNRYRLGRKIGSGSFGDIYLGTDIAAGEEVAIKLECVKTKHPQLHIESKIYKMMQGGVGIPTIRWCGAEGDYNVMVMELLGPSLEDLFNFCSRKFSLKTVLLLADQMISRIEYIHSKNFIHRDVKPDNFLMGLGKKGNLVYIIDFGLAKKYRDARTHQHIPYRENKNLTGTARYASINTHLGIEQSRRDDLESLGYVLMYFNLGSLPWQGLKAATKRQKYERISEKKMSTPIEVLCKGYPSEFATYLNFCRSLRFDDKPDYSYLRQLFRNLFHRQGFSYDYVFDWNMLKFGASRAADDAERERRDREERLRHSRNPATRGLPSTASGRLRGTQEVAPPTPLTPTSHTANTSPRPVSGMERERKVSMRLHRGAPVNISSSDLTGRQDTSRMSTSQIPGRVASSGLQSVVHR

DAPK2 (human) = DAPK2 (human) (UniProt Q9UIK4)
DYRK1B (human) = DYRK1B (human) (UniProt Q9Y463)
Sequence of DYRK1B (human) (Q9Y463 whole entry, looked up): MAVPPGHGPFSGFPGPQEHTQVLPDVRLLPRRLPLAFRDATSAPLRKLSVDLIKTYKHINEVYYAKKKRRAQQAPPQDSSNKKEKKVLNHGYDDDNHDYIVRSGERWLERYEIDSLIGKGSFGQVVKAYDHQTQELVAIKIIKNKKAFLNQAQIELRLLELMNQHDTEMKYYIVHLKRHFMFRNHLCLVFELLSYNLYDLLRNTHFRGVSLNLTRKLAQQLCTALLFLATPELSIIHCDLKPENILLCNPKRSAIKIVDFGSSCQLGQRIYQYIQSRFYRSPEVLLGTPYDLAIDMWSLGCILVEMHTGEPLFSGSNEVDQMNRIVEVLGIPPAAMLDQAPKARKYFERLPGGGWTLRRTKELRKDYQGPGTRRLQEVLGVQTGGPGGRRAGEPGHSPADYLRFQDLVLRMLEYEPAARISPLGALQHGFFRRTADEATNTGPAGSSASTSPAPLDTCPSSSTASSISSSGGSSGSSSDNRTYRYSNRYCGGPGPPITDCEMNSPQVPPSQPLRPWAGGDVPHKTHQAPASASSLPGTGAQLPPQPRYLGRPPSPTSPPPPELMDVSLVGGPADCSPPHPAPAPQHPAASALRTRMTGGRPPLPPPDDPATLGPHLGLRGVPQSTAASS

EPHB3 (human) = EPHB3 (human) (UniProt P54753)
FRK (human) = FRK (human) (UniProt P42685)
INSR (human) = INSR (human) (UniProt P06213)
INSRR (human) = INSRR (human) (UniProt P14616)
KDR (human) = KDR (human) (UniProt P35968)
MAP2K2 (human) = MAP2K2 (human) (UniProt P36507)
MAP3K7 (human) = MAP3K7 (human) (UniProt O43318)
MAP4K2 (human) = MAP4K2 (human) (UniProt Q12851)
MAP4K5 (human) = MAP4K5 (human) (UniProt Q9Y4K4)
MAPK10 (human) = MAPK10 (human) (UniProt P53779)
Sequence of MAPK10 (human) (P53779 whole entry, looked up): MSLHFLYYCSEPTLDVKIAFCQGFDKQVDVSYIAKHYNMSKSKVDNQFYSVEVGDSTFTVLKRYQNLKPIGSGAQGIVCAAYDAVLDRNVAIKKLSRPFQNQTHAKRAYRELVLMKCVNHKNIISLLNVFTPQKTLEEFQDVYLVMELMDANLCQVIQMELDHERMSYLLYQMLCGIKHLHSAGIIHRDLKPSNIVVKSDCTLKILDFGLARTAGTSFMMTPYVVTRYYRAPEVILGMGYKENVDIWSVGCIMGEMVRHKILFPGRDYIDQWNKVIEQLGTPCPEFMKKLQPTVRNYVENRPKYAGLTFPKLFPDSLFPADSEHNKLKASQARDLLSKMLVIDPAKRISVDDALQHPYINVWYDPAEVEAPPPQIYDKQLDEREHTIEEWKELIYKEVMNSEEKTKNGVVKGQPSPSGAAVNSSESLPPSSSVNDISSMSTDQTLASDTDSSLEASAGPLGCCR

MAPK11 (human) = MAPK11 (human) (UniProt Q15759)
MAPK14 (human) = MAPK14 (human) (UniProt Q16539)
MAPK9 (human) = MAPK9 (human) (UniProt P45984)
MARK1 (human) = MARK1 (human) (UniProt Q9P0L2)
Sequence of MARK1 (human) (Q9P0L2 whole entry, looked up): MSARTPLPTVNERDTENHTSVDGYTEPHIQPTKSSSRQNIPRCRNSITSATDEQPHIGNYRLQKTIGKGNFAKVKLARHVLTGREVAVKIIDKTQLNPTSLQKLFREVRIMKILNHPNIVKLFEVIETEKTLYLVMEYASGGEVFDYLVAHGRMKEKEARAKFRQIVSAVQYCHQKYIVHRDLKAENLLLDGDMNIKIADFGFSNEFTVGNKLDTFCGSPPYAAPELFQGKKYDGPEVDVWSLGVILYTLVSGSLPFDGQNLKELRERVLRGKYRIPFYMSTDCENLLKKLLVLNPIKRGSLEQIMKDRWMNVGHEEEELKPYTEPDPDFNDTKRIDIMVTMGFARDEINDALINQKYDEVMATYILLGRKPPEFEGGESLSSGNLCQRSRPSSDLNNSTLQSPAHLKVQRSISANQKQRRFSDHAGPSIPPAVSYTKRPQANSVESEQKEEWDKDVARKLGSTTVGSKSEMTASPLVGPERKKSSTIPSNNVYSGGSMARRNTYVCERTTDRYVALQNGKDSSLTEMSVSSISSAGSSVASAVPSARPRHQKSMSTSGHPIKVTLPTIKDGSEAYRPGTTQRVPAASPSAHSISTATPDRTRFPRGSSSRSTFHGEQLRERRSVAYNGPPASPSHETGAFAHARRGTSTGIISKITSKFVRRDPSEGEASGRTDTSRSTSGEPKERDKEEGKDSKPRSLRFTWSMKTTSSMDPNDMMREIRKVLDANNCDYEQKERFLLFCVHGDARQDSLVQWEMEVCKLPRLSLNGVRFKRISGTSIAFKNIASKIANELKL

NEK1 (human) = NEK1 (human) (UniProt Q96PY6)
NEK9 (human) = NEK9 (human) (UniProt Q8TD19)
Sequence of NEK9 (human) (Q8TD19 whole entry, looked up): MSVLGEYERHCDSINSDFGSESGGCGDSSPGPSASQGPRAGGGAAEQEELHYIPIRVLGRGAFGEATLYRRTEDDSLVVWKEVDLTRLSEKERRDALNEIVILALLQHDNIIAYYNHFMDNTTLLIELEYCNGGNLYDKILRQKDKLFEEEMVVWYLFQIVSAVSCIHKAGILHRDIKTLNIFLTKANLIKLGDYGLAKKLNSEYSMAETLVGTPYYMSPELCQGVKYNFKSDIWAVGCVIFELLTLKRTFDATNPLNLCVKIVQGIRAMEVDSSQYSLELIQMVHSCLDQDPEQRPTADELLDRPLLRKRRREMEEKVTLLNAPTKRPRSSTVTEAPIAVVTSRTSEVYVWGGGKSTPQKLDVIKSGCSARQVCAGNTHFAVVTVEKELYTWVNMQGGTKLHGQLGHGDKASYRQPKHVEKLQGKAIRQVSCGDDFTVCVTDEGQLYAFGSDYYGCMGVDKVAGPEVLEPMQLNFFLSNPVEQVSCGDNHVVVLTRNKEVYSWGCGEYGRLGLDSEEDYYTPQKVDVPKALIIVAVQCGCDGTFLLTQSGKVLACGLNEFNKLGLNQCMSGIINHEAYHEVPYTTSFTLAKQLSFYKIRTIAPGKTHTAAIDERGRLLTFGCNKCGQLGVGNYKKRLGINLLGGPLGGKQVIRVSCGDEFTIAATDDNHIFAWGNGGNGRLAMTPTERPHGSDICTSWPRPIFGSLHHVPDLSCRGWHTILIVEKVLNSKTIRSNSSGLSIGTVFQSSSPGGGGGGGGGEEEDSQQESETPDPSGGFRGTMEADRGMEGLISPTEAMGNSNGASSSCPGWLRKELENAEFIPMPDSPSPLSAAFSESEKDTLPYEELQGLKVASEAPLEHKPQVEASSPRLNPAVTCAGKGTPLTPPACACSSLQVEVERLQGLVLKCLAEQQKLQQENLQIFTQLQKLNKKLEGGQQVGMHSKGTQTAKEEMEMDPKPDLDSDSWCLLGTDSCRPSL

PAK2 (human) = PAK2 (human) (UniProt Q13177)
PKN1 (human) = PKN1 (human) (UniProt Q16512)
PRKCB1 (human) = PRKCB1 (human) (UniProt P05771)
PRKCB2 (human) = PRKCB2 (human) (UniProt P05771)
PRKD3 (human) = PRKD3 (human) (UniProt O94806)
PRKX (human) = PRKX (human) (UniProt P51817)
PTK2 (human) = PTK2 (human) (UniProt Q05397)
RAF1 (human) = RAF1 (human) (UniProt P04049)
ROS1 (human) = ROS1 (human) (UniProt P08922)
STK10 (human) = STK10 (human) (UniProt O94804)
STK24 (human) = STK24 (human) (UniProt Q9Y6E0)
TBK1 (human) = TBK1 (human) (UniProt Q9UHD2)
TEK (human) = TEK (human) (UniProt Q02763)
Sequence of TEK (human) (Q02763 whole entry, looked up): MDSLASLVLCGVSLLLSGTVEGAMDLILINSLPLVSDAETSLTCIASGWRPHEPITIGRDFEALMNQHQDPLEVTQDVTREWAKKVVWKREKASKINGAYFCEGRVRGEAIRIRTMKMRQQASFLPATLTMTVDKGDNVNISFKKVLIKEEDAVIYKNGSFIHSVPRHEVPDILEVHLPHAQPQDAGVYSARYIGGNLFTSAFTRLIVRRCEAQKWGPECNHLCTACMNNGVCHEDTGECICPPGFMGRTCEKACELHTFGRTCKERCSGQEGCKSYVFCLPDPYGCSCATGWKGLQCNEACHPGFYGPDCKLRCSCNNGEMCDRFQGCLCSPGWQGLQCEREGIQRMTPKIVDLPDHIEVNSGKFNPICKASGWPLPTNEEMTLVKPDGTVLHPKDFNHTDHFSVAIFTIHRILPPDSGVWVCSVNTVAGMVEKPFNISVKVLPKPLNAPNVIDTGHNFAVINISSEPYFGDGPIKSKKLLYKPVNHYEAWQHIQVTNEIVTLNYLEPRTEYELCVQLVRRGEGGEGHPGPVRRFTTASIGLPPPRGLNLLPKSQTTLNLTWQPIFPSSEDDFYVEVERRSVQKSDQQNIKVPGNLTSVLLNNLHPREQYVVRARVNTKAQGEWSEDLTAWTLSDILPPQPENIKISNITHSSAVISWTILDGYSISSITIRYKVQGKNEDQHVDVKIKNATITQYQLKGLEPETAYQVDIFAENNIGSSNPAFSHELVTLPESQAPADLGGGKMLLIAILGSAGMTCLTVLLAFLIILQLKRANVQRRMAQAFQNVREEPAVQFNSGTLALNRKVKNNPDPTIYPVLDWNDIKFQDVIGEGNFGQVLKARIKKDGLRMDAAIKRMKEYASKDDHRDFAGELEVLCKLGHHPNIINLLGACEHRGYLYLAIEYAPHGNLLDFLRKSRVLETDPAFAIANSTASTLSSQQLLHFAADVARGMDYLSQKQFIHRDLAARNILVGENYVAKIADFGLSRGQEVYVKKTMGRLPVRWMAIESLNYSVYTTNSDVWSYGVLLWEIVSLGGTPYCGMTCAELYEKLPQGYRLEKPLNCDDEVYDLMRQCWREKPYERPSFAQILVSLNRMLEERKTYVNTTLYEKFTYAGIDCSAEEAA

TYK2 JH1 JH2 (human) = TYK2 JH1 JH2 (human) (UniProt P29597)
WEE1 (human) = WEE1 (human) (UniProt P30291)

Sequence of BTK (human) (Q06187 whole entry, looked up): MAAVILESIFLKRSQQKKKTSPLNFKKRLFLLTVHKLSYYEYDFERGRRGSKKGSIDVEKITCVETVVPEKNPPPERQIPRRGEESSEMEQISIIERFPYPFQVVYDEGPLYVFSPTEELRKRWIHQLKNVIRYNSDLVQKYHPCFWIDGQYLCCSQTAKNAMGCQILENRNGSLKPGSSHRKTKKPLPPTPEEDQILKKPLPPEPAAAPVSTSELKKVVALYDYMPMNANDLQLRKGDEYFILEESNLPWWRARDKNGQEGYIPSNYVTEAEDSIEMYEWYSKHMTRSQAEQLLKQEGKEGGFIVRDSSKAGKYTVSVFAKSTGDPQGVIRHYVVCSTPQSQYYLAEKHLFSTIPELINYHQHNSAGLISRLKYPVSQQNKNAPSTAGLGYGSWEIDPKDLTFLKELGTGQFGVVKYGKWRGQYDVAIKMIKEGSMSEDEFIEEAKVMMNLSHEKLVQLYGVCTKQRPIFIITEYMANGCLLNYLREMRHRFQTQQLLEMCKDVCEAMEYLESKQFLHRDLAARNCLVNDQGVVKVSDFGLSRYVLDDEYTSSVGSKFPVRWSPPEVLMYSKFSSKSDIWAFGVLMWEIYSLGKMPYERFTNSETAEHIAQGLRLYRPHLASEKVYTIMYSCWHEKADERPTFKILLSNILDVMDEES

## CC[C@H](C)n1cc(C)c2c(C(=O)NCc3c(C)cc(C)[nH]c3=O)cc(-c3ccc(N4CCNCC4)nc3)cc21
ADRBK1 (human)
  residual activity: 108%
AURKC (human)
  residual activity: 101%
BRSK1 (human)
  residual activity: 99.5%
BTK (human)
  residual activity: 103%
CAMK1 (human)
  residual activity: 54%
CAMKK2 (human)
  residual activity: 98%
CDK1 CCNB1 (human)
  residual activity: 99%
CDK7 CCNH MNAT1 (human)
  residual activity: 102%
CHEK1 (human)
  residual activity: 79%
CLK4 (human)
  residual activity: 95.5%
CSNK1D (human)
  residual activity: 100%
DAPK2 (human)
  residual activity: 106%
DYRK1B (human)
  residual activity: 90.5%
EPHB3 (human)
  residual activity: 92.5%
FRK (human)
  residual activity: 97%
INSR (human)
  residual activity: 95.5%
INSRR (human)
  residual activity: 88%
KDR (human)
  residual activity: 104%
MAP2K2 (human)
  residual activity: 102%
MAP3K7 (human)
  residual activity: 106%
MAP4K2 (human)
  residual activity: 91.5%
MAP4K5 (human)
  residual activity: 102%
MAPK10 (human)
  residual activity: 105%
MAPK11 (human)
  residual activity: 102%
MAPK14 (human)
  residual activity: 100%
MAPK9 (human)
  residual activity: 80.5%
MARK1 (human)
  residual activity: 95.5%
NEK1 (human)
  residual activity: 96.5%
NEK9 (human)
  residual activity: 102%
PAK2 (human)
  residual activity: 97.5%
PKN1 (human)
  residual activity: 89%
PRKCB1 (human)
  residual activity: 102%
PRKCB2 (human)
  residual activity: 94%
PRKD3 (human)
  residual activity: 102%
PRKX (human)
  residual activity: 80.5%
PTK2 (human)
  residual activity: 91.5%
RAF1 (human)
  residual activity: 97%
ROS1 (human)
  residual activity: 110%
STK10 (human)
  residual activity: 90%
STK24 (human)
  residual activity: 82%
TBK1 (human)
  residual activity: 105%
TEK (human)
  residual activity: 95.5%
TYK2 JH1 JH2 (human)
  residual activity: 91.5%
WEE1 (human)
  residual activity: 100%

Reference: the kinase profiling compilation of Christmann-Franck et al. (2016)
